Data: the supplement of paper PMC8612539
In brackets after ≈: the same amount, converted by molar mass.

Tested on: Mannheimia haemolytica
Assay: minimum inhibitory concentration (MIC)
Experimental: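 Broth microdilution MIC (Sensititre BOPO7F bovine plate, CLSI methods) of 19 antimicrobials against field isolates of P. multocida, M. haemolytica, H. somni (deep nasopharyngeal swabs) and E. coli, Enterococcus spp. (rectal swabs) from weaned dairy heifers. Incubation 16-24 h at 35 C. MIC is the lowest concentration preventing visible growth. Values with <= or > lie at the tested range limits. Trimethoprim-sulfamethoxazole is given as the trimethoprim component of a 1:19 mixture.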

CNC(C)C1CCC(N)C(OC2C(N)CC(N)C(OC3OCC(C)(O)C(NC)C3O)C2O)O1 (configuration not stated) [Gentamicin]
Conditions	minimum inhibitory concentration [µg/mL]
isolate (source animal id): 8	2 (≈ 4.19 µM)
isolate (source animal id): 13	2 (≈ 4.19 µM)
isolate (source animal id): 18	2 (≈ 4.19 µM)
isolate (source animal id): 21	2 (≈ 4.19 µM)
isolate (source animal id): 25	4 (≈ 8.38 µM)
isolate (source animal id): 27	4 (≈ 8.38 µM)
isolate (source animal id): 28	2 (≈ 4.19 µM)
isolate (source animal id): 30	2 (≈ 4.19 µM)
isolate (source animal id): 31	4 (≈ 8.38 µM)
isolate (source animal id): 32	4 (≈ 8.38 µM)
isolate (source animal id): 34	4 (≈ 8.38 µM)
isolate (source animal id): 36	4 (≈ 8.38 µM)
isolate (source animal id): 37	4 (≈ 8.38 µM)
isolate (source animal id): 40	4 (≈ 8.38 µM)
isolate (source animal id): 41	2 (≈ 4.19 µM)
isolate (source animal id): 43	4 (≈ 8.38 µM)
isolate (source animal id): 46	4 (≈ 8.38 µM)
isolate (source animal id): 49	4 (≈ 8.38 µM)
isolate (source animal id): 50	4 (≈ 8.38 µM)
isolate (source animal id): 51	2 (≈ 4.19 µM)
isolate (source animal id): 52	2 (≈ 4.19 µM)
isolate (source animal id): 53	4 (≈ 8.38 µM)
isolate (source animal id): 55	2 (≈ 4.19 µM)
isolate (source animal id): 56	2 (≈ 4.19 µM)
isolate (source animal id): 57	16 (≈ 33.5 µM)
isolate (source animal id): 100	4 (≈ 8.38 µM)
isolate (source animal id): 103	4 (≈ 8.38 µM)
isolate (source animal id): 107	4 (≈ 8.38 µM)
isolate (source animal id): 108	4 (≈ 8.38 µM)
isolate (source animal id): 112	2 (≈ 4.19 µM)
isolate (source animal id): 113	16 (≈ 33.5 µM)
isolate (source animal id): 121	4 (≈ 8.38 µM)
isolate (source animal id): 122	4 (≈ 8.38 µM)
isolate (source animal id): 123	16 (≈ 33.5 µM)
isolate (source animal id): 126	4 (≈ 8.38 µM)
isolate (source animal id): 133	2 (≈ 4.19 µM)
isolate (source animal id): 135	> 16
isolate (source animal id): 138	4 (≈ 8.38 µM)
isolate (source animal id): 141	16 (≈ 33.5 µM)
isolate (source animal id): 142	4 (≈ 8.38 µM)
isolate (source animal id): 145	4 (≈ 8.38 µM)
isolate (source animal id): 149	2 (≈ 4.19 µM)
isolate (source animal id): 151	2 (≈ 4.19 µM)
isolate (source animal id): 152	2 (≈ 4.19 µM)
isolate (source animal id): 154	2 (≈ 4.19 µM)
isolate (source animal id): 159	4 (≈ 8.38 µM)
isolate (source animal id): 162	4 (≈ 8.38 µM)
isolate (source animal id): 170	4 (≈ 8.38 µM)
isolate (source animal id): 171	2 (≈ 4.19 µM)
isolate (source animal id): 172	4 (≈ 8.38 µM)
isolate (source animal id): 173	4 (≈ 8.38 µM)
isolate (source animal id): 179	4 (≈ 8.38 µM)
isolate (source animal id): 180	2 (≈ 4.19 µM)
isolate (source animal id): 183	2 (≈ 4.19 µM)
isolate (source animal id): 186	4 (≈ 8.38 µM)
isolate (source animal id): 187	2 (≈ 4.19 µM)
isolate (source animal id): 188	2 (≈ 4.19 µM)
isolate (source animal id): 190	2 (≈ 4.19 µM)
isolate (source animal id): 191	4 (≈ 8.38 µM)
isolate (source animal id): 192	2 (≈ 4.19 µM)
isolate (source animal id): 201	2 (≈ 4.19 µM)
isolate (source animal id): 202	4 (≈ 8.38 µM)
isolate (source animal id): 209	4 (≈ 8.38 µM)
isolate (source animal id): 211	2 (≈ 4.19 µM)
isolate (source animal id): 220	4 (≈ 8.38 µM)
isolate (source animal id): 221	4 (≈ 8.38 µM)
isolate (source animal id): 223	4 (≈ 8.38 µM)
isolate (source animal id): 233	4 (≈ 8.38 µM)
isolate (source animal id): 237	4 (≈ 8.38 µM)
isolate (source animal id): 241	4 (≈ 8.38 µM)
isolate (source animal id): 252	4 (≈ 8.38 µM)
isolate (source animal id): 253	4 (≈ 8.38 µM)
isolate (source animal id): 259	2 (≈ 4.19 µM)
isolate (source animal id): 260	4 (≈ 8.38 µM)
isolate (source animal id): 262	2 (≈ 4.19 µM)
isolate (source animal id): 282	2 (≈ 4.19 µM)
isolate (source animal id): 287	4 (≈ 8.38 µM)
